In patent US6844151B1, “Methods for production of arrays with modified oligonucleotide and polynucleotide compositions” (Oligos Etc. Inc., priority 1999, dated 2005):
[pOEt] = p-ethoxy (ethyl phosphotriester) internucleotide linkage

How the values were obtained:
[1] = test system: Regular RNA 20-mer oligonucleotide SEQ ID NO:1; assay: Tm of 20-mer duplexes, modified SEQ ID NO:2 strand bound to Regular RNA SEQ ID NO:1; type: binding; conditions: duplex with Regular RNA SEQ ID NO:1; 4 μM each; 50 mM NaCl, 10 mM PO4 buffer, pH 7.4
Method: (§1) The stability of duplexes having 2′-substituted nucleotides versus duplexes without such modification was tested by examining the Tm of these complexes. 4 μM each of 20-mer oligonucleotide (5′-ggt ggt tcc tcc tca gtc gg-3′; SEQ ID NO:1) and its complement (5′- ccg act gag aag gaa cca cc-3;SEQ ID NO:2) were bound in a solution of 50 mM NaCl, 10 mM PO4 buffer, pH 7.4. Each of the nucleotides of the oligonucleotide had the same 2′ group. Following binding, the melting temperature was determined as described. (See L. L. Cummins et al., Nucleic Acids Research 23:2019-2024 (1995).

[2] = test system: Regular DNA 20-mer oligonucleotide SEQ ID NO:1; assay: Tm of 20-mer duplexes, modified SEQ ID NO:2 strand bound to Regular DNA SEQ ID NO:1; type: binding; conditions: duplex with Regular DNA SEQ ID NO:1; 4 μM each; 50 mM NaCl, 10 mM PO4 buffer, pH 7.4
Method: as §1

| Substance | Tm [1] | Tm [2] |
| --- | --- | --- |
| 2′-O-methyl: SEQ ID NO:2 20-mer, every nucleotide with 2′-O-methyl group (CCGACTGAGAAGGAACCACC; all 2'-O-methyl, backbone and T or U not given here) | 79 °C |  |
| Regular DNA: unmodified DNA 20-mer, SEQ ID NO:2 (5′-ccg act gag aag gaa cca cc-3′) (CCGACTGAGAAGGAACCACC; DNA, backbone not given here) [reference compound] | 66 °C |  |
| p-ethoxy 2′-O-methyl: SEQ ID NO:2 20-mer as p-ethoxy 2′-O-methyl (CCGACTGAGAAGGAACCACC; all 2'-O-methyl, all [pOEt], T or U not given here) | 71 °C |  |
| p-ethoxy DNA: SEQ ID NO:2 20-mer as p-ethoxy DNA (CCGACTGAGAAGGAACCACC; DNA, all [pOEt], methylation of C not given here) |  | 55 °C |
| p-ethoxy RNA: SEQ ID NO:2 20-mer as p-ethoxy RNA (CCGACTGAGAAGGAACCACC; RNA, all [pOEt], T or U not given here) | 56 °C |  |
